The values below come from US20230390397A1, “SYSTEM, METHOD AND PROCESS FOR SELF-STERILIZATION OF IODINE-[…]” (HDR LLC, priority 2022, published 2023).

SMILES strings stand for the structures. In brackets after ≈: the same amount, converted by molar mass. Several values for one entry are separate records, joined by “and”; a condition that tells them apart may be missing. Equal entries are not always repeated. Where two headings read alike, the source gives them in different places.

Series [1] is described as follows: Evaporation of I2 from I2 and I- mixed solutions in an open and well-ventilated space. The format is physicochemical. As to conditions: initial I2 concentration 0.99 mm, open system. From the text:
The effects of temperature, concentration of I2, and presence of I— on the evaporation of I2 in I2 and I— mixed solutions were investigated in an open and well-ventilated space. From the experiments, it was confirmed that the evaporation rate of I2 increased exponentially as the solution temperature increased, showing a similar trend with temperature dependence of the saturated vapor pressure of I2.
The phenomenon that I2 evaporation was expedited at higher temperature can be explained by temperature dependency of the evaporation enthalpy and saturated vapor pressure. For an open system, the vapor pressure of elemental iodine increases about 14 torr, or 0.27 psi.

The conditions of series [2]: cited from earlier work.

For `II` [Elemental iodine, Elemental iodine (I2)], the “lapsed time required to reduce less than 10% of the initial concentration” value in series [1] (50° C.) is about 30 min; in series [1] (80° C.), about 7 min. For the same compound, the “free iodine which is soluble in water” value in series [2] (20° C.) is on record as 290 ppm; in series [2] (70° C.), 1,100 ppm; in series [2] (80° C.) it was 1,250 ppm. Besides, the solubility in water in series [2] (20° C.) was 0.29 g/L (≈ 1.14 mM); in series [2] (25° C.), 0.33 g/l and 1.2 mM; in series [2] (50° C.) it was 0.78 g/L (≈ 3.07 mM); in series [2] (80° C.), 1.25 g/L (≈ 4.92 mM).
